Assay [1] is described as follows: (§1) Compound were evaluated for its binding affinity against vitamin K dependent carboxylation.
Assay [2] in a line: as §1. This is another data set of the same source.

As to H-FLEEV-OH, the Ki (as a rule, the equilibrium dissociation constant of an inhibitor or competing ligand from its target) in assay [1] was determined as 20 mM.

`CC(C)C[C@H](NC(=O)[C@@H](N)Cc1ccccc1)C(=O)N[C@@H](CCc1nn[nH]n1)C(=O)N[C@@H](CCc1nn[nH]n1)C(=O)N[C@H](C(=O)O)C(C)C`: in assay [1], the affinity, expressed as Ki, was 3.1 mM. Against the preceding compound, the Ki is about 6.5-fold lower.

`CC(C)C[C@H](NC(=O)[C@@H](N)Cc1ccccc1)C(=O)N[C@@H](CCC1N=NN=N1)C(=O)N[C@@H](CCC1N=NN=N1)C(=O)N[C@H](C(=O)O)C(C)C` gave a Ki in assay [1] of 3 mM. Further, the Km (commonly the concentration of substrate that gives half-maximal velocity) in assay [2] is 3000 µM.
